Source: US20080170990A1, “Methods for Myocardial Imaging in Patients Having a History of Pulmonary Disease” (CV THERAPEUTICS, INC., priority 2006, published 2008)
Like-named read-outs stand apart in the source and are kept apart here.

Experiments:
[1] = tested on: patients undergoing a clinically indicated coronary catheterization; experiment: Dose-ranging study of coronary flow velocity, heart rate and blood pressure after IV bolus (Example 2); assay type: in vivo, human
Procedure: (§1) The study included patients undergoing a clinically indicated coronary catheterization with no more than a 70% stenosis in any coronary artery and no more than a 50% stenosis of the study vessel had CBFv determined by Doppler flow wire. Study subject were selected after measuring baseline and peak CBFv after an intracoronary (IC) injection of 18 μg of Ado. 36 subjects were identified as meeting the study criteria of having a peak to baseline CBFv ration of ≧2.5 in response to Adenosine,
Regadenoson was administered to the study subjects by IV bolus in less than 10 seconds in amounts ranging from 10 μg to 500 μg. Regadenoson is selective for the A2A adenosine receptor.
The effectiveness of both compounds was measured by monitoring coronary flow velocity. Other coronary parameters that were monitored included heart rate and blood pressure. These parameters were measured in order to evaluate the time to peak dose response, the magnitude of the dose response and the duration of the dose response. Adverse events were also monitored. Coronary blood flow velocity was measured at the LAD or LCx vessel. The velocity measurements were taken by following standard heart catheterization techniques and inserting a 0.014 inch Doppler-tipped Flowire into the LAD or LCx vessel and thereafter monitoring blood flow velocity. In addition, hemodynamic and electrocardiographic measurements were recorded continuously.
Overall, 36 human subjects (n=36) were evaluated. Of the 36, 18 were female and 18 were male. Their mean age was 53.4 and they ranged from 24-72 years in age. Of the 36 subjects evaluated, the LAD vessel of 31 subjects was monitored, and the LCx vessel of 5 subjects was monitored. The following doses (μg) of Regadenoson were given to the subjects in a single iv bolus: 10 (n=4); 30 (n=6); 100 (n=4); 300 (n=7); 400 (n=9); 500 (n=6).

[2] = tested on: patients undergoing a clinically indicated coronary catheterization; experiment: Coronary blood flow velocity (CBFv) by Doppler flow wire after IV bolus, open label study (Example 1); assay type: in vivo, human
Procedure: The purpose of this open label study was to determine the magnitude and duration of effect of Regadenoson (10-500 μg) on CBFv in humans.
as §1, with “Patients” for “The study included patients”, “subjects” for “subject”, “Twenty-three patients, who” for “36 subjects”, “Adenosine, received a rapid (≦10 sec) peripheral IV bolus of Regadenoson; Doppler signals were stable and interpretable over the time-course of the increase in CBFv in 17 patients.” for “Adenosine,”

awake dogs = experiment: Blood flow in coronary, mesenteric, hind limb and renal vascular beds (Example 8); assay type: in vivo, dog
From the text: In this study the vasodilator effects of Regadenoson were compared to those of ADO in different vascular beds in awake dogs. Dogs were chronically instrumented for measurements of the blood flow in coronary (CBF), mesenteric (MBF), hind limb (LBF), and renal (RBF) vascular beds, and hemodynamics.

[3] = tested on: subjects undergoing pharmacologic stress MPI; experiment: Adverse effects and hemodynamics in pharmacologic stress myocardial perfusion imaging protocol (Example 7); assay type: in vivo, human
From the text: 36 subjects (27 men, 9 women; 67±10 years) were studied with two doses of Regadenoson [400 mcg (n=18), 500 mcg (n=18)], administered as an IV bolus, as part of a pharmacologic stress myocardial perfusion imaging protocol.

[4] = Phase 1 pharmacokinetics after single IV bolus, three-compartment model (Example 3); assay type: in vivo, human; conditions: for Vd: human, plasma, intravenous, read-out: Vc (central volume of distribution)
Procedure: Regadenoson was administered as an IV bolus (20 seconds) in ascending doses of […], 10, 20 and 30 μg/kg.
Plasma samples were drawn during supine phase (Days 1 and 2) at 0, 1, 2, 3, 4, 5, 7, 10, 15, 20, 30, 45 minutes after dosing and at 1, 1.5, 2, 4, 6, 8, 12 and 24 hours after dosing. Urine was collected for 24 hours for Regadenoson excretion.
A three-compartment open model was fit to the data using observed Tmax (1-4 minutes) as the duration of a zero-order infusion. Reliable parameter estimates were obtained for dose of 1-30 μg/kg. Parameters are summarized in the following (Table 2): […]

[5] = 400 μg IV bolus, about 1 minute after dosing
[6] = 400 or 500 mcg IV bolus, 36 subjects

In the case of `CNC(=O)c1cnn(-c2nc(N)c3ncn([C@@H]4O[C@H](CO)[C@@H](O)[C@H]4O)c3n2)c1` [Regadenoson, (1-{9-[(4S,2R,3R,5R)-3,4-dihydroxy-5-(hydroxymethyl)oxolan-2-yl]-6-aminopurin-2-yl}pyrazol-4-yl)-N-methylcarboxamide], the “maximum decrease in diastolic BP” value [1, 5] is reported as 10±5 mmHg, the “maximum decrease in systolic BP” value [1, 5] is reported as 20±8 mmHg and the “maximum increase in heart rate” value [1, 5] is reported as 18±8 bpm. The tolerability ([1]; 10-500 μg IV bolus) was “generally well tolerated”, the “amount at which plateau peak flow velocity is reached” value ([1]; IV bolus) was “less than 100 μg” and the “lowest amount that increases peak flow velocity” value ([1]; IV bolus) was 10 µg. The “time to peak flow” value ([1]; all doses (10-500 μg IV bolus)) was “about 30 seconds”, the “peak effects compared with adenosine” value ([1]; doses above about 100 μg) was “equivalent to 18 μg ic adenosine” and the “maximal decrease in systolic BP” value ([2]; 500 μg IV bolus) was 8.7±7.6. For the same compound, the “maximal increase in HR” value ([2]; 500 μg IV bolus) was 18.7±4.0, the “adverse events (AEs)” value ([2]; 3 patients receiving the 500 μg dose) was “No AEs” and the “adverse events (AEs)” value ([2]; 10-500 μg IV bolus, nausea, flushing, headache, mild and self-limited) was “infrequent”. For the same compound, the “peak to baseline CBFv ratio” value ([2]; Regadenoson 100, 300 and 500 μg IV bolus, mean ±SD) was 3.2±0.6, the “potency relative to adenosine in increasing coronary blood flow velocity (CBFv)” value (awake dogs; awake dogs) was over 100 fold and the “increase in hind limb blood flow (LBF)” value (awake dogs; mean ±SE, n=6, FIG. 18) was “smaller increase in LBF than ADO”. For the same compound, the incidence of dizziness ([3]; 400-mcg group) was 11%, the incidence of dyspnea ([3]; 400-mcg group) was 17% and the incidence of flushing ([3]; 400-mcg group) was 17%. The “mean change in HR response” value ([3]; 400 mcg dose) was 34.8%, the “patients with adverse effects (AE)” value [3, 6] was 72% and the “patients with adverse effects (AE), number” value [3, 6] was 26 pts. It also gave an incidence of dizziness ([3]; 500-mcg group) of 28%, an incidence of dyspnea ([3]; 500-mcg group) of 44% and an incidence of flushing ([3]; 500-mcg group) of 44%. The “mean change in HR response” value ([3]; 500 mcg dose) was 44.2%, the “incidence of abdominal pain” value ([3]; both doses) was 11% and the “incidence of chest discomfort” value ([3]; both doses) was 33%. For the same compound, the incidence of headache ([3]; both doses) was 25%, the “lowest systolic BP (did not fall below)” value ([3]; either dose) was at least 90 mmHg and the “serious AE” value ([3]; exacerbation of a migraine headache, required hospitalization) was “One serious AE occurred”. For the same compound, the “AEs resolved within 15 min without treatment” value ([3]; in vivo) was 91%, the “AEs that were mild to moderate” value ([3]; in vivo) was 96% and the “AV block and arrhythmias” value ([3]; in vivo) was “No 2nd or 3rd degree AV block was noted and there were no serious arrhythmias”. The “patients developing ST abnormalities” value ([3]; in vivo) was 7 pts, the “patients developing T wave abnormalities” value ([3]; in vivo) was 5 pts and the “time of peak hemodynamic effect, diastolic BP” value ([3]; in vivo) was 8 min. For the same compound, the “time of peak hemodynamic effect, heart rate” value ([3]; in vivo) was at most 2 min, the “time of peak hemodynamic effect, systolic BP” value ([3]; in vivo) was 4 min and the “Diastolic BP, Absolute Change (peak)” value ([3]; mean ±S.D., 400 and 500 mcg) was −5.4 ± 7.2 mmHg. The “Diastolic BP, Relative Change (peak)” value ([3]; mean ±S.D., 400 and 500 mcg) was −7.9% ± 10.5%, the “Heart Rate, Absolute Change (peak)” value ([3]; mean ±S.D., 400 and 500 mcg) was “+21.9 ± 10.4 beats per min” and the “Heart Rate, Relative Change (peak)” value ([3]; mean ±S.D., 400 and 500 mcg) was “+36.7% + 21.0%”. The “Systolic BP, Absolute Change (peak)” value ([3]; mean ±S.D., 400 and 500 mcg) was −5.9 ± 10.7 mmHg, the “Systolic BP, Relative Change (peak)” value ([3]; mean ±S.D., 400 and 500 mcg) was −4.1% ± 7.6% and the “BP deviation from baseline” value ([3]; thirty min after Regadenoson) was under 2%. For the same compound, the HR above baseline ([3]; thirty min after Regadenoson) was 8.6%, the “K21 (rate constant for transfer from first peripheral to central compartment)” value ([4]; Total (all doses), N=22, mean) was 0.258 min⁻¹ and the “K31 (rate constant for transfer from second peripheral to central compartment)” value ([4]; Total (all doses), N=22, mean) was 0.0143 min⁻¹. For the same compound, the “Vss (volume of distribution at steady state)” value ([4]; Total (all doses), N=22, mean) was 75.5 L, the “K21 (rate constant for transfer from first peripheral to central compartment)” value ([4]; dose 1 μg/kg, N=3, mean) was 0.246 min⁻¹ and the “K31 (rate constant for transfer from second peripheral to central compartment)” value ([4]; dose 1 μg/kg, N=3, mean) was 0.01808 min⁻¹. The “K21 (rate constant for transfer from first peripheral to central compartment)” value ([4]; dose 3 μg/kg, N=4, mean) was 0.203 min⁻¹, the “K31 (rate constant for transfer from second peripheral to central compartment)” value ([4]; dose 3 μg/kg, N=4, mean) was 0.0152 min⁻¹ and the “α Half-life” value ([4]; dose 3 μg/kg, N=4, mean) was 3.11 min. The “K21 (rate constant for transfer from first peripheral to central compartment)” value ([4]; dose 10 μg/kg, N=4, mean) was 0.187 min⁻¹, the “K31 (rate constant for transfer from second peripheral to central compartment)” value ([4]; dose 10 μg/kg, N=4, mean) was 0.0108 min⁻¹ and the “K21 (rate constant for transfer from first peripheral to central compartment)” value ([4]; dose 20 μg/kg, N=8, mean) was 0.387 min⁻¹. The “K31 (rate constant for transfer from second peripheral to central compartment)” value ([4]; dose 20 μg/kg, N=8, mean) was 0.0141 min⁻¹, the “CL (clearance)” value ([4]; dose 20 μg/kg, N=8, mean (SD)) was 743 (123) mL/min and the “K21 (rate constant for transfer from first peripheral to central compartment)” value ([4]; dose 30 μg/kg, N=3, mean) was 0.0948 min⁻¹. The “K31 (rate constant for transfer from second peripheral to central compartment)” value ([4]; dose 30 μg/kg, N=3, mean) was 0.0148 min⁻¹, the “Vss (volume of distribution at steady state)” value ([4]; dose 30 μg/kg, N=3, mean) was 89.6 L and the “λ Half-life” value ([4]; dose 30 μg/kg, N=3, mean) was 99.4 min. It also gave a Vd ([4]; 1 ug/kg, N=3, mean (SD)) of 9.84 L, a Vd ([4]; 3 ug/kg, N=4, mean (SD)) of 13.7 L and a Vd ([4]; 10 ug/kg, N=4, mean (SD)) of 17.9 L. It also gave a Vd ([4]; 20 ug/kg, N=8, mean) of 12.5 L, a Vd ([4]; 30 ug/kg, N=3, mean) of 15.7 L and a Vd ([4]; Total (all doses), N=22, mean) of 13.8 L.
